# Laboratory results from patent publication US9248162B2, “Factor H for treatment of rheumatoid arthritis” (Baxter International Inc., priority 2013, dated 2016).
# Values joined by “and” are separate entries in the source; they are usually repeats but may differ in a detail not shown here. Equal entries are not always repeated.
# Columns and labels:
# [1] = tested on: collagen antibody-induced arthritis; assay: Mouse CAIA: ankle histology scores (H & E); format: in vivo, Balb C mice; set-up: key: 0: normal; 1: minimal infiltration of inflammatory cells in periarticular tissue; 2: mild infiltration; 3: moderate infiltration with moderate edema; 4: marked infiltration with marked edema; 5: severe infiltration with severe edema; settings: individual animal
# Experimental: (§1) Balb C mice (n=10 per cohort) were used to determine the efficacy of Factor H (FH) during […]. The mice were treated with ArthritoMAb (anti-collagen) antibody cocktail (2 mg, i.v.) on day 1, followed 7 days later with an injection of LPS (50 μg, i.p.). On day 8, hind paw volumes were measured for each animal and distributed to various treatment groups.
# (§2) Dosing with the different agents was started on day 8 as described in Table 3.
# (§3) Hind paw volumes were measured on day 8, 11, 12, 13, 15, 19 and 22 (endpoint). The age at start date was 7 to 9 weeks. Body weights were measured bi-weekly to the endpoint (Table 4). At the endpoint, tissue samples were processed for histology and submitted to a pathologist for independent analysis. Sampling 1 was performed at the endpoint. The hind limbs were preserved in 10% formalin. Sampling 2 was performed at the endpoint for group 4 animals. Blood was collected by terminal cardiac puncture. The blood was processed for anti-coagulant. The kidneys were additionally preserved in formalin and followed with 70% EtOH. Samples were scored for inflammation, pannus (granulation tissue), cartilage damage, bone resorption and exostosis (Table 5).
# [2] = tested on: collagen antibody-induced arthritis; assay: Mouse CAIA: ankle histology scores (H & E); format: in vivo, Balb C mice; set-up: key: 0: normal; 1: minimal infiltration of pannus in cartilage and subchondral bone; 2: mild infiltration; 3: moderate infiltration; 4: marked infiltration; 5: severe infiltration; settings: individual animal, score 0-5, endpoint day 22, listed as Group 2
# Experimental: as §1, §2, §3
# [3] = tested on: collagen antibody-induced arthritis; assay: Mouse CAIA: ankle histology scores (H & E); format: in vivo, Balb C mice; set-up: key to Score From H & E: Inflammation: 0: normal; 1: minimal infiltration of inflammatory cells in periarticular tissue; 2: mild infiltration; 3: moderate infiltration with moderate edema; 4: marked infiltration with marked edema; 5: severe infiltration with severe edema; key to Exostosis, Summary (significance) / Composite, Summary (significance) / Pannus, Summary (significance) / Cartilage, Summary (significance) / Inflammation, Summary (significance): ns: = not significant; *: = P < 0.05; **: = P < 0.01; ***: = P < 0.001; Composite Biohistopathology Score, group value / Composite Biohistopathology Score: scale not given here
# Experimental: as §1, §2, §3
# [4] = Mouse CAIA: body weight and tolerability; format: in vivo, Balb C mice; settings: mouse, in vivo
# Experimental: as §1, §2, §3
# [5] = tested on: collagen antibody-induced arthritis; assay: Mouse CAIA: hind paw / footpad volume (swelling, disease burden); format: in vivo, Balb C mice; set-up: Mean Disease Burden / Total Disease Burden (AUC) / Hind Limb Volume, Mean Diff. / Total Disease, Mean Diff.: unit not given here
# Experimental: as §1
# (§4) Factor H was formulated in 20 mM Citrate, 150 mM NaCl, pH=6. […] Ethanercept was formulated as Enbrel™ in saline. Vehicle was formulated in 20 mM Citrate, 150 mM NaCl, pH=6. […] The dosing volume for Factor H and BX12 was 25 mL/kg (0.500 mL/20 g mouse) and adjusted accordingly for body weight.
# as §2
# as §3, with “The” for “Hind paw volumes were measured on day 8, 11, 12, 13, 15, 19 and 22 (endpoint). The”
# [6] = tested on: collagen antibody-induced arthritis; assay: Mouse CAIA: clinical score; format: in vivo, Balb C mice
# Experimental: The mice were treated with ArthritoMAb (anti-collagen) antibody cocktail (2 mg, i.v.) on day 1, followed 7 days later with an injection of LPS (50 μg, i.p.). On day 8, hind paw volumes were measured for each animal and distributed to various treatment groups.
# as §4, §2
# [7] = tested on: kidney allografts in pre-sensitized recipients; assay: Kidney allograft survival in pre-sensitized recipients, RAPA / FK506 / CFH (Example 2); format: in vivo, C57BL/6 (B6) mice
# Description: Male C3H (H-2k) and C57BL/6 (B6, H-2b) mice (25-30 g) were used to determine the efficacy of Rapamycin (RAPA) in combination with Factor H (FH) during transplant rejection. C3H mice served as skin graft and kidney donors for pre-sensitization and kidney transplantation. Male C57BL/c (B6) mice were used as recipients. The B6 recipients were pre-sensitized by transplantation of the donor skin grafts, and were subsequently transplanted with kidney allografts between 15 and 20 days after the skin transplantation. […]
# Mice were monitored daily for signs of rejection and were euthanized at the end point of the experiment, which was defined as when transplants developed functional deterioration due to severe rejection or on POD60 and POD100. Renal graft function was monitored by plasma creatinine (Cr) blood urea nitrogen (BUN) and hematocrit (Hct) levels by an I-Stat potable analyzer (Abaxis). Circulating donor specific antibodies (DSAs) were determined prior to kidney transplantation and at the endpoint of study by flow cytometry.
# [8] = Vehicle vs agent, Dunn's Multiple Comparison Test
# [9] = ankle, group mean ± spread, 10 animals, score 0-5
# [10] = Vehicle vs agent, Dunnett's Multiple Comparison Test
# [11] = histopathology score, graded 1-5, hind limbs at endpoint, group value
smiles,measurement,setting,value
C[C@@H]1C[C@H]2[C@@H]3CCC4=CC(=O)C=C[C@]4(C)[C@@]3(F)[C@@H](O)C[C@]2(C)[C@@]1(O)C(=O)CO [Dexamethasone],Score From H & E: Bone Resorption,"[1]; score 0-5, endpoint day 22",0
same,Score From H & E: Cartilage Damage,"[1]; score 0-5, endpoint day 22",0
same,Score From H & E: Periosteal/Exostotic Changes,"[1]; score 0-5, endpoint day 22",0
same,Score From H & E: Pannus,"[1]; score 0-5, endpoint day 22, listed as Group 2",0
same,Score From H & E: Pannus,[2],1
same,"Cartilage, Summary (significance)",[3]; [8],ns
same,"Composite, Summary (significance)",[3]; [8],* (= P < 0.05)
same,"Exostosis, Summary (significance)",[3]; [8],** (= P < 0.01)
same,"Inflammation, Summary (significance)",[3]; [8],** (= P < 0.01)
same,"Pannus, Summary (significance)",[3]; [8],ns
same,"Composite Biohistopathology Score, group value","[3]; ankle, group mean ± spread, 10 animals",0.2 ± 0.1
same,"Score From H & E: Bone Resorption, group value",[3]; [9],0.0 ± 0.0
same,"Score From H & E: Cartilage Damage, group value",[3]; [9],0.0 ± 0.0
same,"Score From H & E: Inflammation, group value",[3]; [9],0.1 ± 0.1
same,"Score From H & E: Pannus, group value",[3]; [9],0.1 ± 0.1
same,"Score From H & E: Periosteal/Exostotic Changes, group value",[3]; [9],0.0 ± 0.0
same,Composite Biohistopathology Score,"[3]; ankle, individual animal, endpoint day 22, listed as Group 2",1 (2×) and 0 (8×)
same,Score From H & E: Inflammation,"[3]; ankle, individual animal, score 0-5, endpoint day 22, listed as Group 2",0 (9×) and 1
same,Mean Body Weigh at Nadir,[4],−7.7%
same,"Hind Limb Volume, Summary (significance)",[5]; [10],*** (= P < 0.001)
same,"Total Disease, Summary (significance)",[5]; [10],*** (= P < 0.001)
same,Hind paw volume,"[5]; day 8 of study, group mean, n 10",0.35 mL
same,Hind paw volume,"[5]; day 8 of study, individual animal",0.42 mL and 0.39 mL (2×) and 0.37 mL and 0.35 mL and 0.34 mL and 0.33 mL and 0.31 mL (2×) and 0.3 mL
same,Hind paw volume,"[5]; day 11 of study, group mean, n 10",0.32 mL
same,Hind paw volume,"[5]; day 11 of study, individual animal",0.38 mL and 0.34 mL and 0.32 mL (3×) and 0.3 mL (3×) and 0.35 mL and 0.31 mL
same,Hind paw volume,"[5]; day 12 of study, group mean, n 10",0.34 mL
same,Hind paw volume,"[5]; day 12 of study, individual animal",0.34 mL (4×) and 0.28 mL and 0.35 mL and 0.32 mL and 0.31 mL and 0.39 mL and 0.37 mL
same,Hind paw volume,"[5]; day 13 of study, group mean, n 10",0.33 mL
same,Hind paw volume,"[5]; day 13 of study, individual animal",0.31 mL (2×) and 0.3 mL (2×) and 0.36 mL and 0.35 mL (2×) and 0.33 mL and 0.38 mL and 0.29 mL
same,Hind paw volume,"[5]; day 16 of study, group mean, n 10",0.31 mL
same,Hind paw volume,"[5]; day 16 of study, individual animal",0.37 mL and 0.33 mL and 0.29 mL (3×) and 0.38 mL and 0.26 mL and 0.3 mL (2×) and 0.27 mL
same,Hind paw volume,"[5]; day 19 of study, group mean, n 10",0.34 mL
same,Hind paw volume,"[5]; day 19 of study, individual animal",0.35 mL (4×) and 0.28 mL and 0.3 mL (2×) and 0.38 mL and 0.37 mL and 0.32 mL
same,Hind paw volume,"[5]; day 22 of study, group mean, n 10",0.33 mL
same,Hind paw volume,"[5]; day 22 of study, individual animal",0.39 mL and 0.42 mL and 0.3 mL and 0.32 mL and 0.29 mL (2×) and 0.35 mL (2×) and 0.31 mL and 0.26 mL
same,% Disease Suppression,"[5]; days 8-22, individual animal",95.1%
same,Total Disease Burden (AUC),"[5]; days 8-22, individual animal",−0.56 and −0.05
same,"Clinical Score, Summary (significance)",[6]; [8],*** (= P < 0.001)
same,"Clinical Score, Day of Study 8, Mean","[6]; group mean, n=10, day 8 (start of dosing)",4.00
same,"Clinical Score, Day of Study 11, Mean","[6]; group mean, n=10, day 11",0.10
same,"Clinical Score, Day of Study 12, Mean","[6]; group mean, n=10, day 12",5.70
same,"Clinical Score, Day of Study 13, Mean","[6]; group mean, n=10, day 13",6.00
same,"Clinical Score, Day of Study 16, Mean","[6]; group mean, n=10, day 16 (Jul. 1, 2011)",0.00
same,"Clinical Score, Day of Study 19, Mean","[6]; group mean, n=10, day 19",0.00
same,"Clinical Score, Day of Study 22, Mean","[6]; group mean, n=10, day 22 (endpoint)",0.00
same,"Clinical Score, Day of Study 8","[6]; individual animal, score 0-60, day 8 (start of dosing)",5 (2×) and 10 (3×) and 0 (5×)
same,"Clinical Score, Day of Study 11","[6]; individual animal, score 0-60, day 11",0 (9×) and 1
same,"Clinical Score, Day of Study 12","[6]; individual animal, score 0-60, day 12",0 (3×) and 10 (4×) and 5 (2×) and 7
same,"Clinical Score, Day of Study 13","[6]; individual animal, score 0-60, day 13",0 (4×) and 10 (6×)
same,"Clinical Score, Day of Study 16","[6]; individual animal, score 0-60, day 16 (Jul. 1, 2011)",0
same,"Clinical Score, Day of Study 19","[6]; individual animal, score 0-60, day 19",0
same,"Clinical Score, Day of Study 22","[6]; individual animal, score 0-60, day 22 (endpoint)",0
"CO[C@H]1C[C@@H]2CC[C@@H](C)[C@@](O)(O2)C(=O)C(=O)N2CCCC[C@H]2C(=O)O[C@H]([C@H](C)C[C@@H]2CC[C@@H](O)[C@H](OC)C2)CC(=O)[C@H](C)/C=C(\C)[C@@H](O)[C@@H](OC)C(=O)[C@H](C)C[C@H](C)/C=C/C=C/C=C/1C [RAPA, Rapamycin]",Survival,"[7]; individual graft survival, one value per graft",8 days (2×) and 37 days and 10 days and 11 days and 12 days and 22 days and 14 days and 16 days and 20 days
same,MST,"[7]; mean survival time of cohort, untreated controls 8 days",14 days
C[C@@H]1C[C@H]2[C@@H]3CCC4=CC(=O)C=C[C@]4(C)[C@@]3(F)[C@@H](O)C[C@]2(C)[C@@]1(O)C(=O)CO [Dex.],Composite Score,"[3]; histopathology composite, hind limbs at endpoint, group value",0.2 ± 0.1
same,Bone Resorption,[3]; [11],0 ± 0^ns
same,Cartilage Damage,[3]; [11],0 ± 0^ns
same,Exostosis,[3]; [11],0 ± 0
same,Inflammation,[3]; [11],0.1 ± 0.1
same,Pannus,[3]; [11],0.1 ± 0.1^ns
